We go through 1 molecule from article PMC10275055, “Preventing recurrence in Sonic Hedgehog Subgroup Medulloblastoma using the OLIG2 inhibitor CT-179” (Research Square, 2023).

pIC50: −log10 of the molar value. Like-named read-outs stand apart in the source and are kept apart here. Where only a bound is given, the exact number is not on record here.

A short description of data set [1]: In vivo pharmacokinetic studies of CT-179 in mice, plasma and brain. Also on record: species or system mice (C57Bl/J6). Particulars: mouse; for bioavailability: in vivo, po, PO 20 mg/kg vs IV 1 mg/kg. The procedure:
The in vivo pharmacokinetic studies (EXT-240 and EXT-241) were performed under contract by Biodura Inc.

For another data set, the system named is UW228 MB cell line. In words: Cell viability, 7 days treatment, UW228. To be noted: Homo sapiens, 168 h; UW228, 7 days. Format: cell-based. The procedure:
(§1) Cell proliferation was determined by a CellTiter 96® Non-Radioactive Cell Proliferation Assay (Promega) kit. Absorbance at 490 nm was measured on a Biotek PowerWave (Biotek, USA) plate scanner to obtain raw data. Average absorbance from triplicate wells were plotted against concentration using GraphPad Prism software v.7.0 (GraphPad software). At the indicated time points, cells were stained using FITC-conjugated Annexin V and Annexin V binding buffer (BD Pharmingen™) according to the manufacturer’s instructions. Annexin V or propidium iodide (PI)-positive cells were analyzed using a Fortessa 5 Flow Cytometer (Becton Dickinson) and data was analyzed using FlowJo® software (Tree Star).

The test system of another data set is U87-MG glioma cells. Description: Cell viability, OLIG2-negative U87-MG. The format is cell-based. To be noted: does not express OLIG2. On the procedure:
as §1

For data set [2], the system named is OLIG2-driven transcription (human LHX8 promoter). In words: LHX8 promoter luciferase reporter assay in Daoy cells. Particulars: OLIG2 overexpression, 250 nM, 24 hours. The format is cell-based. An excerpt: Promoter region of human LHX8 was amplified by PCR from human genomic DNA extracted from Med-813luci cells with primers shown in STAR METHODS. The promoter region was inserted into the pGL3-Basic luciferase-reporter vector (Promega). Flag-OLIG2 were synthesised as a gBlock flanked by the Nhel and BamHI restriction enzyme sites (Integrated DNA Technologies, Singapore). The gBlock was restriction digested and ligated into the expression vector, pLEX_307 (a gift from Joseph Rosenbluh, Monash University, Australia) to form pLX307/FLAG-OLIG2. Firefly luciferase-reporter construct (300 ng, pGL3-Basic or pGL3-LHX8), pRL Renilla luciferase SV40 Control Reporter Vector (Promega, 50 ng), and pLX307/Flag-OLIG2 (300 ng) or pLX307/empty vector (300 ng) were reverse co-transfected with Daoy cells (1 × 10^5/well) in 24-well plates using Lipofectamine™ 3000 (Invitrogen). CT-179 (250 nM) was added and incubated for 24 hours. The luciferase activity was examined using Dual-Glo® Luciferase Assay System (Promega) according to the manufacturer’s instructions, and the signal was normalised to vector controls.

The nature of data set [3]: G-Smo GEM model of SHH-MB: tolerability, pharmacodynamics, survival. The format is in vivo, mice. Particulars: mouse, in vivo, ip, read-out: maximum tolerated dose (MTD). The procedure: (§2) Medulloblastoma-bearing mice were maintained at UNC in accordance with UNC IACUC protocols 19–098 and 21–011 and at QIMR under protocol 1572 and 2324. Specimens were examined by a neuropathologist to verify tumor type and grade.
(§3) Post-natal P10 G-Smo mice were injected IP with CT-179 (80 mg/kg), or POx-Palbo (25 mg/kg, every day from P10 to P13), or combination (CT-179 + POx-Palbo, EOD from P14) or saline control solution and tumors were harvested after 6 or 24 hours. EdU (40 mg/kg) was administered IP 30 minutes before harvest. Tumors were dissociated using the Worthington Papain Dissociation System Kit, then fixed for 15 minutes on ice and washed with FACS Wash buffer (2% FBS in PBS). Fixed cells were stained with fluorophore markers for DNA (FX Cycle stain, Thermo Fisher Scientific), EdU (Click-it Edu Kit, Thermo Fisher Scientific), and phospho-RB content (phospho-RB^Ser807/811, Cell Signalling Technology) as previously described. Stained cells were resuspended in sheath fluid and ran on LSR II flow cytometer for 50000 events at the UNC Flow Cytometry core, using appropriate compensation controls and analyzed using FlowJo® software (Tree Star).
(§4) Brains including tumors from G-Smo mice were harvested, fixed in 4% paraformaldehyde for 48 hours, and embedded in paraffin at the UNC Centre for Gastrointestinal Biology and Disease Histology core. Sections were deparaffinised, and antigen retrieval was performed using a low-pH citric acid-based buffer. Staining was performed and stained slides were digitally scanned using the Leica Biosystems Aperio ImageScope software (12.3.3) by the UNC Translational Pathology Laboratory, as in prior studies. The primary antibodies used were anti-NeuN (Cell Signalling Technology) anti-OLIG2 (Cell Marque) and anti-SOX10 (Cell Signalling Technology) and anti-cleaved caspase-3 (Biocare).
(§5) In vitro experiments - all data represent the means ± standard deviation (SD) or standard error of the mean (SEM) as indicated. Where appropriate, two-tailed Student’s t-test or ANOVA were used to determine the probability of difference (*p < 0.05, ** p < 0.01, ***p < 0.001). In vivo experiments - the log-rank (Mantel-Cox) test was used to determine the survival significance of survival differences between treatment groups (*p < 0.05, ** p < 0.01, ***p < 0.001). Kaplan-Meier survival curves were generated using GraphPad Prism v. 7.0 software (GraphPad software).

Data set [4] deals with SHH-MB in Gfap-Cre/SmoM2 (G-Smo) mice. Described as above. Format: in vivo. The procedure: as §2, §3, §4, §5
Where [5] appears, read: 80 mg/kg at P10, P12, P14 and P16, 24 hours after last dose.

As to `Cc1cc(NCCCN(C)C)nc(NC(=O)Nc2ccc(Cl)c(Cl)c2)n1` [CT-179], in data set [1] (brain, 4 hours after single PO dose, 20 mg/kg, read-out: brain to plasma (B/P) ratio, average), the Kp at 4 h amounted to 6.72. Further, the Kp in data set [1] (brain, second study, PO doses of 1 and 5 mg/Kg once daily, read-out: estimated brain to plasma ratio) is above 10. For the same molecule, the bioavailability in data set [1] (20 mg/kg, read-out: bioavailability, mean) was 75%; in data set [1] (20 mg/kg, read-out: bioavailability, range estimated), 58 to 91%. This molecule showed a pIC50 in the data set on UW228 MB cell line of 6.54. Besides, in the data set with U87-MG glioma cells, the growth suppression result is given as “not suppressed”. The “luciferase expression (LHX8 promoter reporter)” value in data set [2] is “significantly decreased”. The MTD in data set [3] (EOD) was 80 mg/kg; in data set [3] (every three days), 100 mg/kg. Besides, the “p-OLIG2 in tumors, western blot” value in data set [4] (setting [5]) is listed as “decreased p-OLIG2”. Moreover, in data set [4] (setting [5]), the “p-RB in tumors, western blot” value is on record as “reduced p-RB”. Besides, in data set [4] (IP 80 mg/kg EOD, 80 mg/kg every three days, or 100 mg/kg every three days, from P10), the EFS versus control result is on record as “significantly improved EFS”. In data set [4] (administered every three days), the “BLI signal in G-Smo Gli-luc mice” value was “dose-dependent decrease in BLI signal”.
